Here are results for 57 molecules from patent publication US11512080B2, “CRBN ligands and uses thereof” (Kymera Therapeutics, Inc., priority 2018, dated 2022).

Bounds are passed on as bounds.

Chain of His-tagged CRBN-DDB1 complex (Q96SW2 whole entry): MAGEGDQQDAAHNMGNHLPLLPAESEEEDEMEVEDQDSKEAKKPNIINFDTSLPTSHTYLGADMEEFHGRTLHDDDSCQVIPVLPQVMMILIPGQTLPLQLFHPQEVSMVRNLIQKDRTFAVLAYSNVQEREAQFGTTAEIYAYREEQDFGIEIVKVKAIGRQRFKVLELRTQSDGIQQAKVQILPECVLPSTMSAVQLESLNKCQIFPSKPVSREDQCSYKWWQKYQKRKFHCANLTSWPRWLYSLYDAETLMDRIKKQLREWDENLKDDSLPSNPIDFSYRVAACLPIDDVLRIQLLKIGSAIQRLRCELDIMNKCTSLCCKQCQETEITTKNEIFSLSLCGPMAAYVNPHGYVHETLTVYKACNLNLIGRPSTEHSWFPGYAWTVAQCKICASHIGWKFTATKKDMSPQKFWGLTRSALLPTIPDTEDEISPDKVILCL
Chain of His-tagged CRBN-DDB1 complex (Q16531 whole entry partner): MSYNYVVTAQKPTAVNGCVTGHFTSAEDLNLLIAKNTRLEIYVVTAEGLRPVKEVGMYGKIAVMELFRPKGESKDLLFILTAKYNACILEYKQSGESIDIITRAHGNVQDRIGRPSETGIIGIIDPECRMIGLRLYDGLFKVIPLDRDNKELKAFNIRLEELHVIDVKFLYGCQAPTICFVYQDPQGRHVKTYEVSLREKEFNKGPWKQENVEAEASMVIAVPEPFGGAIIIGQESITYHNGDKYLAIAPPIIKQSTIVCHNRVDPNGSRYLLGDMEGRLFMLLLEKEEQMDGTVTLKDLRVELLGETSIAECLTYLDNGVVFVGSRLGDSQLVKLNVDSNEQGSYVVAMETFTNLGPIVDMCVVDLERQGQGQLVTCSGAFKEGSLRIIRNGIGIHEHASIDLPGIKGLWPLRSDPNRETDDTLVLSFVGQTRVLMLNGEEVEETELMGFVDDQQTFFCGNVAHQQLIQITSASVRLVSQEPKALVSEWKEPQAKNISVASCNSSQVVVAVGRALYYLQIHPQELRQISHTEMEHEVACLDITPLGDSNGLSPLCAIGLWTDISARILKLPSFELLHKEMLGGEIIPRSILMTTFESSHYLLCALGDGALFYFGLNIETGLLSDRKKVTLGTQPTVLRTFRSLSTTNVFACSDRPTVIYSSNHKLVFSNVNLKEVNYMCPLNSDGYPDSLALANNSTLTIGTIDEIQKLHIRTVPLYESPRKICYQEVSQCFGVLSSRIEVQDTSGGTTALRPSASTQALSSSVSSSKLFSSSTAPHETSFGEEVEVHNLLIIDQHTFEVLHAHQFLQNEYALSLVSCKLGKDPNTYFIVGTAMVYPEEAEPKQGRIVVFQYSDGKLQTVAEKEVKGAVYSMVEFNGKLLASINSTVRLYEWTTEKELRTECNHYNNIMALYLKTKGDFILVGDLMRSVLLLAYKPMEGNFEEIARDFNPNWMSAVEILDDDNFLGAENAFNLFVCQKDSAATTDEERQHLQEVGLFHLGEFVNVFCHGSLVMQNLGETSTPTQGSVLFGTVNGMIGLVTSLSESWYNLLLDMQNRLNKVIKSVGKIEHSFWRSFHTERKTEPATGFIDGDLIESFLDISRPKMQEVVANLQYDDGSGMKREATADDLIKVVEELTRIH

The first experiment deals with His-tagged CRBN-DDB1 complex (Homo sapiens (Human), UniProt Q96SW2). Description: Time-Resolved Fluorescence Resonance Energy Transfer (TR-FRET) assay. Type of experiment: binding. The note with it: competition with Cy5-labeled thalidomide (8 nM), 1 hour at room temperature; read-out: CRBN HTRF IC50. The method, then:
The mixture were incubated at room temperature for 1 hour. […] Quantitative loss of FRET efficiency as a function of compound concentrations was fitted by a four-parameter Logistic Function using GraphPad Prism 7.0 and the IC50 values were reported for each compound.
The compound numbers correspond to the compound numbers in Table 1.
(In general: Time-resolved FRET reads energy transfer from a long-lived donor to a nearby acceptor.)
Consider `Cn1cc(C2SC(=O)NC2=O)c2ccccc21` (stereo not drawn) [Compound I-71, 5-(1-Methyl-1H-indol-3-yl)thiazolidine-2,4-dione], for which the IC50 (as a rule, the point on the concentration scale where inhibition reaches its midpoint) was over 100 µM.

With `Cn1ccnc1SC1CCC(=O)NC1=O` (stereo not drawn) [Compound I-73], the IC50 was over 100 µM.

With `Cn1ccc(N2CCC(=O)NC2=O)n1` [Compound I-76], the IC50 was over 100 µM.

For the molecule `O=C1CN(C2SC(=O)NC2=O)CCN1` (stereo not drawn) [Compound I-77, 5-(3-Oxopiperazin-1-yl)thiazolidine-2,4-dione], the IC50 is over 100 µM.

With `Cn1nc(C2SC(=N)NC2=O)c2ccccc21` (stereo not drawn) [Compound I-81, 2-Imino-5-(1-methyl-1H-indazol-3-yl)thiazolidin-4-one], the IC50 was over 100 µM.

As for `O=C1NC(=O)C(N2CCN(c3ccccc3)CC2=O)S1` (stereo not drawn) [Compound I-82, 5-(2-Oxo-4-phenylpiperazin-1-yl)thiazolidine-2,4-dione], the 50% inhibitory concentration (IC50) is over 100 µM.

Regarding `O=C1CCC(SC2CCCCC2)C(=O)N1` (stereo not drawn) [Compound I-116], the IC50 was over 100 µM.

The experiment is the same for the next values; noted with them: read-out: CRBN HTRF IC50.
Consider `O=C1CCC(Sc2nc3ccccc3n2C2CC2)C(=O)N1` (stereo not drawn) [Compound I-70, 3-((1-Cyclopropyl-1H-benzo[d]imidazol-2-yl)thio)piperidine-2,6-dione], for which the IC50 fell in the range of 10 to 100 µM.

As for `O=C1CCC(Sc2cccs2)C(=O)N1` (stereo not drawn) [Compound I-72], the IC50 fell in the range of 10 to 100 µM.

As to `O=C1CCC(Sc2ccccc2O)C(=O)N1` (stereo not drawn) [Compound I-74], the IC50 is 1 to 10 µM.

On to `COc1ccccc1SC1CCC(=O)NC1=O` (stereo not drawn) [Compound I-75], for which the IC50 is 10 to 100 µM.

Consider `CCc1ccc(OC2CCC(=O)NC2=O)cc1` (stereo not drawn) [Compound I-78, 3-(4-ethylphenoxy)piperidine-2,6-dione], for which the IC50 lay within 1 to 10 µM.

For the molecule `Cc1ccc(SC2CCC(=O)NC2=O)c(C)c1` (stereo not drawn) [Compound I-79], the IC50 was 1 to 10 µM.

As for `Cc1occc1SC1CCC(=O)NC1=O` (stereo not drawn) [Compound I-80], the IC50 lay in the range of 10 to 100 µM.

Regarding `O=C1CCC(Sc2ncccn2)C(=O)N1` (stereo not drawn) [Compound I-83], the 50% inhibitory concentration (IC50) is 10 to 100 µM.

Consider `CCCCc1ccc(SC2CCC(=O)NC2=O)cc1` (stereo not drawn) [Compound I-84], for which the IC50 was in the range of 1 to 10 µM.

Regarding `CN(C)c1ccc(SC2CCC(=O)NC2=O)cc1` (stereo not drawn) [Compound I-85], the IC50 fell in the range of 1 to 10 µM.

Consider `CCOc1cccc(SC2CCC(=O)NC2=O)c1` (stereo not drawn) [Compound I-86], for which the IC50 was 1 to 10 µM.

In the case of `COc1cccc(SC2CCC(=O)NC2=O)c1` (stereo not drawn) [Compound I-87], the IC50 was in the range of 1 to 10 µM.

For the molecule `Cn1nc(N2CCC(=O)NC2=O)cc1-c1ccccc1` [Compound I-88, 1-(1-Methyl-5-phenyl-1H-pyrazol-3-yl)dihydropyrimidine-2,4(1H,3H)-dione], the IC50 is 10 to 100 µM.

For the molecule `Cc1cc(C)nc(SC2CCC(=O)NC2=O)n1` (stereo not drawn) [Compound I-89], the IC50 was 10 to 100 µM.

On to `O=C1CCC(Sc2ccc(Cl)cn2)C(=O)N1` (stereo not drawn) [Compound I-90], for which the IC50 was 1 to 10 µM.

For the molecule `O=C1CCC(Sc2cc(C(F)(F)F)cc(C(F)(F)F)c2)C(=O)N1` (stereo not drawn) [Compound I-92], the IC50 is 10 to 100 µM.

For the molecule `O=C1CCC(Sc2nc(=O)cc(-c3ccccc3)[nH]2)C(=O)N1` (stereo not drawn) [Compound I-93], the concentration for half-maximal inhibition (IC50) lay in the range of 10 to 100 µM.

With `O=C1CCC(Sc2nc3ccc(Cl)cc3[nH]2)C(=O)N1` (stereo not drawn) [Compound I-94], the IC50 lay within 1 to 10 µM.

For the molecule `Cc1cc(O)nc(SC2CCC(=O)NC2=O)n1` (stereo not drawn) [Compound I-95, 3-((4-hydroxy-6-methylpyrimidin-2-yl)thio)piperidine-2,6-dione], the IC50 lay in the range of 10 to 100 µM.

`O=C1CCC(Sc2nc3ccccc3[nH]2)C(=O)N1` (stereo not drawn) [Compound I-96]: the IC50 lay in the range of 10 to 100 µM.

For `O=C1CCC(Sc2cccc3cccnc23)C(=O)N1` (stereo not drawn) [Compound I-97], the half-maximal inhibitory concentration (IC50) fell in the range of 1 to 10 µM.

As to `O=C1CCC(Sc2ccc(C(F)(F)F)cn2)C(=O)N1` (stereo not drawn) [Compound I-98], the IC50 fell in the range of 10 to 100 µM.

In the case of `O=C1CCC(Sc2ccccc2OC(F)(F)F)C(=O)N1` (stereo not drawn) [Compound I-99], the half-inhibitory concentration (IC50) lay in the range of 1 to 10 µM.

`O=C1CCC(Sc2cc(Cl)ccc2Cl)C(=O)N1` (stereo not drawn) [Compound I-101]: the IC50 lay in the range of 1 to 10 µM.

`O=C1CCC(Sc2cc(Cl)c(Cl)cc2Cl)C(=O)N1` (stereo not drawn) [Compound I-102]: the IC50 was 10 to 100 µM.

Take `O=C1CCC(Oc2ccccc2)C(=O)N1` (stereo not drawn) [Compound I-103]: the IC50 fell in the range of 10 to 100 µM.

Regarding `O=C1CCC(Sc2ccc(Br)cn2)C(=O)N1` (stereo not drawn) [Compound I-104], the IC50 was in the range of 1 to 10 µM.

For `Cn1ccc(CN2CCC(=O)NC2=O)n1` [Compound I-106], the IC50 is 10 to 100 µM.

Regarding `O=C1CCC(Sc2cccc(Br)c2)C(=O)N1` (stereo not drawn) [Compound I-108, 3-((3-Bromophenyl)thio)piperidine-2,6-dione], the IC50 is 1 to 10 µM.

Turning to `O=C1CCC(Sc2ccccc2C(F)(F)F)C(=O)N1` (stereo not drawn) [Compound I-109], the IC50 lay within 10 to 100 µM.

For `O=C1CCC(Sc2cccc[n+]2[O-])C(=O)N1` (stereo not drawn) [Compound I-110], the IC50 lay within 1 to 10 µM.

With `O=C1CCC(Sc2cc(C(=O)O)ccn2)C(=O)N1` (stereo not drawn) [Compound I-111], the IC50 was 1 to 10 µM.

Take `O=C1CCC(Sc2ccc(CO)cc2)C(=O)N1` (stereo not drawn) [Compound I-112]: the IC50 fell in the range of 10 to 100 µM.

On to `Nc1cc(=O)nc(SC2CCC(=O)NC2=O)[nH]1` (stereo not drawn) [Compound I-113], for which the IC50 lay in the range of 10 to 100 µM.

Turning to `O=C1CCC(Sc2ccc(F)c(F)c2)C(=O)N1` (stereo not drawn) [Compound I-114], the IC50 was in the range of 10 to 100 µM.

Take `CC(C)(C)c1ccc(OC2CCC(=O)NC2=O)cc1` (stereo not drawn) [Compound I-115]: the IC50 fell in the range of 1 to 10 µM.

In the case of `N#Cc1ccccc1SC1CCC(=O)NC1=O` (stereo not drawn) [Compound I-117], the IC50 fell in the range of 10 to 100 µM.

`Cn1c(=O)c(C2SC(=O)NC2=O)cc2ccccc21` (stereo not drawn) [Compound I-118, 5-(1-methyl-2-oxo-1,2-dihydroquinolin-3-yl)thiazolidine-2,4-dione]: the IC50 lay within 10 to 100 µM.

In the case of `O=C1CCC(Oc2ccc3ccccc3c2)C(=O)N1` (stereo not drawn) [Compound I-119], the IC50 fell in the range of 1 to 10 µM.

For `Nc1cc(C(F)(F)F)ccc1SC1CCC(=O)NC1=O` (stereo not drawn) [Compound I-120], the concentration for half-maximal inhibition (IC50) is 10 to 100 µM.

For the molecule `CCc1cccc(SC2CCC(=O)NC2=O)c1` (stereo not drawn) [Compound I-121, 3-((3-ethylphenyl)thio)piperidine-2,6-dione], the IC50 lay in the range of 1 to 10 µM.

On to `O=C1CCC(Sc2cccc(Cl)c2)C(=O)N1` (stereo not drawn) [Compound I-122], for which the IC50 is 1 to 10 µM.

As for `O=C1CCC(Sc2cccc(C(=O)O)c2)C(=O)N1` (stereo not drawn) [Compound I-123], the half-inhibitory concentration (IC50) fell in the range of 10 to 100 µM.

Regarding `CCCCc1ccc(OC2CCC(=O)NC2=O)cc1` (stereo not drawn) [Compound I-124], the IC50 is 1 to 10 µM.

With `CN(C)c1ccc(OC2CCC(=O)NC2=O)cc1` (stereo not drawn) [Compound I-125], the 50% inhibitory concentration (IC50) lay in the range of 1 to 10 µM.

On to `O=C1CCC(Sc2ncccc2C(=O)O)C(=O)N1` (stereo not drawn) [Compound I-126], for which the IC50 was 1 to 10 µM.

In the case of `O=C1CCC(Sc2cccc(CO)c2)C(=O)N1` (stereo not drawn) [Compound I-127, 3-((3-(Hydroxymethyl)phenyl)thio)piperidine-2,6-dione], the IC50 lay within 10 to 100 µM.

As for `CN1CCN(c2ccc(OC3CCC(=O)NC3=O)cc2)CC1` (stereo not drawn) [Compound I-128], the IC50 lay in the range of 10 to 100 µM.

On to `O=C1CCC(Oc2cccc3cccnc23)C(=O)N1` (stereo not drawn) [Compound I-129], for which the IC50 is 10 to 100 µM.

On to `NC(=O)c1ccnc(SC2CCC(=O)NC2=O)c1` (stereo not drawn) [Compound I-130, 2-((2,6-Dioxopiperidin-3-yl)thio)isonicotinamide], for which the IC50 is 1 to 10 µM.
